Experimental data published in patent US20220087990A1, “APPLICATION OF RIFAMYCIN-QUINOLIZIDONE CONJUGATE MOLECULE AND PHARMACEUTICALLY ACCEPTABLE SALT THEREOF” (priority 2019, published 2022).
Like-named read-outs stand apart in the source and are kept apart here.

Legend:
Assay type in all cases: in vivo, Staphylococcus aureus; Balb/c mice
[1] = system: quinolone-resistant Staphylococcus aureus CB1840 (norA^up); settings: I 30 mg/kg, rifampicin+levofloxacin 20+25 mg/kg
[2] = system: Staphylococcus aureus CB1406 (wild type); settings: for mean Log10 CFU/catheter / log10 CFU reduction in bacterial counts: CB1406; for log10 CFU reduction in bacterial counts: rebound regimen
Method: (§1) Test Drug: rifamycin-quinolizidone conjugate molecule I was provided by TenNor Therapeutics, Ltd., and was stored at −20° C. Other test compounds and reagents are commercially available. […] For remaining test agents, aqueous vehicles of sterile water, 5% sodium bicarbonate or 0.9% normal saline were added to the compound shown in formula I. The rifamycin-quinolizidone conjugate molecule formulation shown in formula I was administered at 30 mg/kg.
(§2) Bacteria: The bacteria used were biofilm forming Staphylococcus aureus strains. These were a wild-type parent biofilm strain CB1406 and it's isogenic fluoroquinoline-resistant derivatives CB1823 (parC^S80F), CB1840 (norA^up) and CB1857 (parC^S80F30 norA^up). Minimal inhibit concentrations (MICs) were determined by broth microdilution assays recommended by CLSI.
(§3) Test animals: female 5-6 week old Balb/c mice were used in this embodiment. The mice had free access to food and water during the course of this test and animal procedures were compliant with UNTHSC Institutional Animal Care and Use Committee (IACUC) guidelines.
(§4) In vitro preparation of colonized implants: Teflon venous catheters (14-Guage AbboCath-T #271-1000 or Braun Introcan #425 2594) were cut into 1 cm segments, sterilized by soaking in 70% ethanol for 15 minutes, dried under UV light for 20 minutes followed by aseptic placement in sterile 1.5 mL polypropylene tubes warmed to 37° C. Inocula were prepared by growing overnight broth cultures, which were diluted in 1:10 in tryptic soy broth plus 0.25% glucose (TSBG) and incubated with 250 rpm at 37° C. for 1 hour. Cultures were diluted to 1.0E+0^6 CFU/mL in 37° C. TSBG, 1 mL was added to each catheter tube, incubated at 37° C. without shaking for an additional 2.5 hours, and then cooled to 18° C. to slow growth until implant surgeries were completed.
(§5) Formation and treatments of subcutaneous implant infections: the mice were anesthetized with isoflurane vapors (4 L/min). Each flank was shaved, sterilized with ethanol/betadine and two 3 mm incisions made. Subcutaneous pockets were excavated, then catheter segments pre-colonized with adherent bacteria inserted into the pockets closed with surgical staples. The mice were returned to their cages and regularly monitored for adverse reactions. Treatments were initiated one week post surgery (bacterial colonization and biofilm formation) twice daily by intraperitoneal injections (IP) for 7 days, 7 days treatment plus a 7 days rebound period with no treatment and 7 days treatment plus 7 days rebound+7 days re-treatment with 5 mice (total 10 implants) per treatment or sampling group. Implant-associated bacteria were monitored by sampling colonized catheter segments during the course of implant surgeries and at regular intervals for up to 28 days post infection.
(§6) Sampling of infected implants: infected mice were euthanized by CO2 inhalation, then flanks were sterilized with 70% ethanol, and the infected catheter segments were excised into 1 mL of phosphate buffered saline pH 7.2 (1×PBS). Bacteria that adhered to the internal surfaces of explanted catheter segments were mechanically disrupted (aseptically) by repeated draws/dispenses of 200 μL 1×PBS from a micropipette tip inserted into catheter lumens, followed by 5 min vortexing at high speed. Explanted samples were then snap frozen in dry ice/ethanol and stored at −80° C. until CFU counts were determined.
(§7) CFU count determination: the catheters were rapidly thawed in a 37° C. water bath, and vortexed for 2 minutes, serially diluted and spotted (8 μL) on agar plates. Viable cell counts for efficacy were determined by plating on drug free Charcoal or MHII agar plates. […] The detection limit for all CFU determinations was less than or equal to 2.09 log10 CFU/implant.
(§8) The counts were multiplied by the serial dilution factor. The resulting raw values were converted to log10 CFU for calculation of means and standard deviations.

[3] = system: quinolone-resistant Staphylococcus aureus CB1823 (parC^S80F); settings: for log10 CFU reduction in bacterial counts: rebound regimen
Method: as §1, §2, §3, §4, §5, §6, §7, §8

[4] = system: S. aureus CB1406, CB1823, CB1840 and CB1857; settings: rebound dosing regimen, mean over strains
Method: as §1, §2, §3, §4, §5, §6, §7, §8

[5] = system: quinolone-resistant Staphylococcus aureus CB1840 (norA^up); settings: for log10 CFU reduction in bacterial counts: rebound regimen
Method: as §1, §2, §3, §4, §5, §6, §7, §8

[6] = system: quinolone-resistant Staphylococcus aureus CB1823 (parC^S80F); settings: I 30 mg/kg, rifampicin+levofloxacin 20+25 mg/kg
[7] = system: Staphylococcus aureus CB1857 (parC^S80F+norA^up); assay: Mouse subcutaneous catheter implant biofilm infection model
Method: as §1, §2, §3, §4, §5, §6, §7, §8

[8] = 14-day treatment regimen, Day 21, IP bid
[9] = following additional 7 treatment days
[10] = rebound treatment regimen, Day 21 (7 days of rebound)
[11] = rebound treatment regimen, Day 28 (7 days of re-treatment)
[12] = 14-day treatment regimen, Day 7 (initiation of treatment)
[13] = rebound treatment regimen, Day 7 (initiation of treatment)
[14] = rebound treatment regimen, Day 14 (after 7 days of administration), IP bid, I 30 mg/kg, rifampicin+levofloxacin 20+25 mg/kg

CO[C@H]1/C=C/O[C@@]2(C)Oc3c(C)c(O)c4c(O)c(c(/C=N/N5CCC(N(C)C6([C@@H]7CCN(c8c(F)cn9c(=O)c(C(=O)O)cc(C%10CC%10)c9c8C)C7)CC6)CC5)c(O)c4c3C2=O)NC(=O)/C(C)=C\C=C\[C@H](C)[C@H](O)[C@@H](C)[C@@H](O)[C@@H](C)[C@H](OC(C)=O)[C@@H]1C [I]
mean Log10 CFU/catheter [1, 8]: 2.10 Log10 CFU/catheter | log10 CFU reduction in bacterial counts at the catheter site ([1]; 14 consecutive days bid): 4.9 log10 CFU | mean Log10 CFU/catheter ([2]; 14-day treatment regimen, Day 7 (before treatment)): 6.82 Log10 CFU/catheter | log10 CFU reduction in bacterial counts ([2]; following 7 days of treatment): 2.1 log10 CFU | log10 CFU reduction in bacterial counts ([2]; following 7 days untreated): 4.6 log10 CFU | log10 CFU reduction in bacterial counts [2, 9]: 4.7 log10 CFU | mean Log10 CFU/catheter ([2]; rebound treatment regimen, Day 7 (before treatment)): 6.82 Log10 CFU/catheter | mean Log10 CFU/catheter [2, 10]: 2.20 Log10 CFU/catheter | mean Log10 CFU/catheter [2, 11]: 2.10 Log10 CFU/catheter | log reduction in bacterial colony counts at the catheter site ([2]; mouse, in vivo): 4.6 log | mean Log10 CFU/catheter [3, 12]: 7.03 Log10 CFU/catheter | log10 CFU reduction in bacterial counts ([3]; following 7 days of treatment): 2.4 log10 CFU | log10 CFU reduction in bacterial counts ([3]; following 7 days untreated): 4.4 log10 CFU | log10 CFU reduction in bacterial counts [3, 9]: 4.5 log10 CFU | mean Log10 CFU/catheter [3, 13]: 7.03 Log10 CFU/catheter | mean Log10 CFU/catheter [3, 14]: 4.61 Log10 CFU/catheter | mean Log10 CFU/catheter [3, 10]: 2.61 Log10 CFU/catheter | mean Log10 CFU/catheter [3, 11]: 2.70 Log10 CFU/catheter | Mean Log10 CFU reduction ([4]; following 7 days of re-treatment): 4.6 Log10 CFU | Mean Log10 CFU reduction ([4]; following 7 days of treatment): 2.4 Log10 CFU | Mean Log10 CFU reduction ([4]; following 7 days untreated (rebound)): 4.6 Log10 CFU | mean Log10 CFU/catheter [5, 12]: 7.01 Log10 CFU/catheter | log10 CFU reduction in bacterial counts ([5]; following 7 days of treatment): 2.4 log10 CFU | log10 CFU reduction in bacterial counts ([5]; following 7 days untreated): 4.9 log10 CFU | log10 CFU reduction in bacterial counts [5, 9]: 4.9 log10 CFU | mean Log10 CFU/catheter [5, 13]: 7.01 Log10 CFU/catheter | mean Log10 CFU/catheter [5, 14]: 4.61 Log10 CFU/catheter | mean Log10 CFU/catheter [5, 10]: 2.10 Log10 CFU/catheter | mean Log10 CFU/catheter [5, 11]: 2.10 Log10 CFU/catheter | mean Log10 CFU/catheter [6, 8]: 2.70 Log10 CFU/catheter | log reduction in bacterial counts at the catheter site ([6]; 14 consecutive days bid): 4.3 log | mean Log10 CFU/catheter [7, 12]: 6.81 Log10 CFU/catheter | mean Log10 CFU/catheter ([7]; 14-day treatment regimen, Day 21, IP bid, I 30 mg/kg, rifampicin+levofloxacin 20+25 mg/kg): 2.30 Log10 CFU/catheter | log10 CFU reduction in bacterial counts at the catheter site ([7]; 14 consecutive days bid, I 30 mg/kg, rifampicin+levofloxacin 20+25 mg/kg): 4.5 log10 CFU | log10 CFU reduction in bacterial counts ([7]; rebound regimen, following 7 days of treatment): 2.5 log10 CFU | mean Log10 CFU/catheter [7, 13]: 6.81 Log10 CFU/catheter | mean Log10 CFU/catheter [7, 14]: 4.26 Log10 CFU/catheter | mean Log10 CFU/catheter [7, 10]: 2.40 Log10 CFU/catheter | mean Log10 CFU/catheter [7, 11]: 2.45 Log10 CFU/catheter
